Literature values, collected in patent US20170172145A1, “COMPOSITIONS COMPRISING AN AMIDE” (The Procter & Gamble Company, priority 2015, published 2017).

Which pKa does the source give for `CCCCCCC(=O)O` [heptanoic acid] here?
The pKa was 5.1.

With `OCl` [hypochlorous acid] as the compound, how does the pKa read?
The pKa was 7.0.

For `CCCCCCCCC(=O)O` [nonanoic acid], which pKa is on record?
The pKa was 5.2.

With `O=C(O)/C=C/c1ccc(O)cc1` [p-coumaric acid] as the compound, how does the pKa read?
Its pKa is 4.6.
